The values that follow come from patent publication US20230047224A1 (Biocomposites Limited, priority 2021, published 2023).

This series is described as follows: In vitro elution of antibiotics from beads into PBS, quantified by LCMS. Particulars: beads in 4 mL PBS at 37° C, 1.5 ml exchanged per time point. The format is physicochemical. As for the experimental part:
Three grams of beads 2 were immersed in 4 mL of sterile phosphate-buffered saline (PBS) at 37° C. At each time point, 1.5 ml of the solution was sampled and replenished with fresh PBS. The samples were then syringe filtered using a 0.2 μm 13 mm PES syringe tilter into 2 mL amber glass vials.
Quantification of eluted antibiotics was measured using a single quadrupole mass spectrometer (MS) coupled to a 1260 infinity II series liquid chromatography stack (LCMS) (Agilent Technologies). Depending on the concentration, samples were analysed either neat or diluted to ensure values fell within the linear range of the standard curves. Concentrations were calculated from peak areas using standard curves developed from dilutions of antibiotic prepared to known concentrations. Separation was conducted with a Poroshell 120-SB-C18 column ([…]).
LCMS conditions were Buffer A was 99.9% H2O, 0.1% Heptafluorobutyric Acid and B was 99.9% Acetonitrile (CAN), 0.1% % Heptafluorobutyric Acid. The gradient was held with 30.0% B for 2 min before increasing linearly to 95.0% over 5 min. The 100% B was maintained for a further 1 min before rapid equilibration in 100% A. The flow rate was constant at 0.3 mL/min.
The gas temperature in the source was 325° C. with a flow rate of 9 L/min. The nebulizer pressure was 35 pounds per square inch and the capillary voltage […]. Fragmentor and collision energy voltages were optimized for each antibiotic.

Turning to tobramycin sulfate, the Elution concentration reads like this: (Day 1) 7046.208 µg/mL; (Day 3) 4693.264 µg/mL; (Day 4) 3130.589 µg/mL; (Day 7) 1972.743 µg/mL; (Day 8) 1058.751 µg/mL; (Day 9) 574.1567 µg/mL. For the same substance, the Elution concentration is, setting by setting: (Day 10) 354.742 µg/mL; (Day 11) 216.352 µg/mL; (Day 14) 135.2563 µg/mL; (Day 15) 109.8367 µg/mL; (Day 17) 15.486 µg/mL; (Day 18) 9.978 µg/mL. Moreover, the Elution concentration reads like this: (Day 21) 7.125 µg/mL; (Day 22) 5.194 µg/mL; (Day 23) 3.866 µg/mL; (Day 24) 3.277 µg/mL; (Day 25) 2.913 µg/mL; (Day 29) 2.833 µg/mL. For the same substance, the Elution concentration runs as follows: (Day 30) 2.598 µg/mL; (Day 31) 2.454 µg/mL.
